Source: ChEMBL document CHEMBL1201862, “PubChem BioAssay data set” (2004)
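Method: 48-hour compound exposure of cells in 96-well plates, five concentrations, linear interpolation of endpoints. GI50 is the concentration that inhibits growth by half.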 Calls of active or inactive are those of the source. Cut-off read from the data, not from the text of the source: active = GI50 up to about 1.1 µM and inactive = higher.

How the values were obtained:
Experiment in all cases: NCI-60 cell line screen, 48 h
[1] = system: RXF 393
[2] = system: NCI-H23
[3] = system: SF-268
[4] = system: UACC-257
[5] = system: HCT-15
[6] = system: DU-145
[7] = system: A549
[8] = system: SK-MEL-28
[9] = system: NCI/ADR-RES
[10] = system: Malme-3M
[11] = system: NCI-H226
[12] = system: HT-29
[13] = system: BT-549
[14] = system: 786-0
[15] = system: RPMI-8226
[16] = system: MCF7
[17] = system: OVCAR-8
[18] = system: SR
[19] = system: HCT-116
[20] = system: SK-OV-3

O=C1c2cc3ncsc3cc2C(=O)c2c(O)ccc(O)c21
GI50 [1]: > 100 µM (inactive)
GI50 [2]: > 100 µM (inactive)
GI50 [3]: > 100 µM (inactive)
GI50 [4]: > 100 µM (inactive)
GI50 [5]: > 100 µM
GI50 [6]: > 100 µM (inactive)
GI50 [7]: > 100 µM (inactive)
GI50 [8]: > 100 µM (inactive)
GI50 [9]: > 100 µM (inactive)
GI50 [10]: > 100 µM (inactive)
GI50 [11]: > 100 µM (inactive)
GI50 [12]: > 100 µM (inactive)
GI50 [13]: > 100 µM (inactive)
GI50 [14]: > 100 µM (inactive)
GI50 [15]: > 100 µM (inactive)
GI50 [16]: > 100 µM (inactive)
GI50 [17]: > 100 µM (inactive)
GI50 [18]: > 100 µM (inactive)
GI50 [19]: > 100 µM (inactive)

c1ccc2c(c1)[n-]n1c3ccc4nonc4c3n[n+]21
GI50 [1]: > 100 µM (inactive)
GI50 [2]: > 100 µM (inactive)
GI50 [4]: > 100 µM (inactive)
GI50 [5]: > 100 µM
GI50 [6]: > 100 µM (inactive)
GI50 [7]: > 100 µM (inactive)
GI50 [8]: > 100 µM (inactive)
GI50 [9]: > 100 µM (inactive)
GI50 [10]: > 100 µM (inactive)
GI50 [11]: > 100 µM (inactive)
GI50 [12]: > 100 µM (inactive)
GI50 [13]: > 100 µM (inactive)
GI50 [14]: > 100 µM (inactive)
GI50 [15]: > 100 µM (inactive)
GI50 [16]: 60.5 µM (inactive)
GI50 [17]: > 100 µM (inactive)
GI50 [18]: > 100 µM (inactive)
GI50 [19]: > 100 µM (inactive)

O=C(NNC(c1ccccc1)C(F)(F)F)c1ccncc1 (stereo not given)
GI50 [2]: > 100 µM (inactive)
GI50 [3]: > 100 µM (inactive)
GI50 [4]: > 100 µM (inactive)
GI50 [5]: > 100 µM
GI50 [6]: > 100 µM (inactive)
GI50 [7]: > 100 µM (inactive)
GI50 [8]: > 100 µM (inactive)
GI50 [9]: > 100 µM (inactive)
GI50 [10]: > 100 µM (inactive)
GI50 [11]: > 100 µM (inactive)
GI50 [12]: > 100 µM (inactive)
GI50 [13]: > 100 µM (inactive)
GI50 [14]: > 100 µM (inactive)
GI50 [15]: > 100 µM (inactive)
GI50 [16]: > 100 µM (inactive)
GI50 [17]: > 100 µM (inactive)
GI50 [18]: > 100 µM (inactive)
GI50 [19]: > 100 µM (inactive)

Cc1ccccc1Nc1cn(COCc2ccccc2)c(=O)[nH]c1=O
GI50 [1]: > 100 µM (inactive)
GI50 [2]: 56.5 µM (inactive)
GI50 [3]: 70.6 µM (inactive)
GI50 [4]: > 100 µM (inactive)
GI50 [5]: > 100 µM
GI50 [6]: 80.4 µM (inactive)
GI50 [7]: 81.3 µM (inactive)
GI50 [8]: > 100 µM (inactive)
GI50 [9]: 40.2 µM (inactive)
GI50 [12]: 48.5 µM (inactive)
GI50 [13]: 14.5 µM (inactive)
GI50 [14]: > 100 µM (inactive)
GI50 [15]: > 100 µM (inactive)
GI50 [16]: > 100 µM (inactive)
GI50 [19]: 49.7 µM (inactive)

Cc1ccc(S(=O)(=O)Oc2nc3ccccc3nc2N(S(=O)(=O)c2ccc(C)cc2)S(=O)(=O)c2ccc(C)cc2)cc1
GI50 [1]: 76.4 µM (inactive)
GI50 [2]: 47.8 µM (inactive)
GI50 [3]: 50.6 µM (inactive)
GI50 [4]: 61.1 µM (inactive)
GI50 [20]: > 100 µM (inactive)
GI50 [5]: 31 µM
GI50 [6]: 53.8 µM (inactive)
GI50 [7]: 85.1 µM (inactive)
GI50 [8]: 55.6 µM (inactive)
GI50 [9]: 40.2 µM (inactive)
GI50 [10]: 49.9 µM (inactive)
GI50 [11]: 22.5 µM (inactive)
GI50 [12]: 28.2 µM (inactive)
GI50 [13]: 90.6 µM (inactive)
GI50 [14]: 38.6 µM (inactive)
GI50 [15]: 32.1 µM (inactive)
GI50 [16]: 84.1 µM (inactive)
GI50 [17]: 52.2 µM (inactive)
GI50 [19]: 36.3 µM (inactive)

CCOC(=O)C(SCCO)C(C(=O)OCC)n1cnc2c(=O)[nH]c(NC(C)=O)nc21 (stereo not given)
GI50 [2]: > 100 µM (inactive)
GI50 [3]: > 100 µM (inactive)
GI50 [4]: > 100 µM (inactive)
GI50 [20]: > 100 µM (inactive)
GI50 [5]: > 100 µM
GI50 [6]: > 100 µM (inactive)
GI50 [7]: > 100 µM (inactive)
GI50 [8]: > 100 µM (inactive)
GI50 [9]: > 100 µM (inactive)
GI50 [10]: > 100 µM (inactive)
GI50 [11]: > 100 µM (inactive)
GI50 [12]: > 100 µM (inactive)
GI50 [13]: > 100 µM (inactive)
GI50 [14]: > 100 µM (inactive)
GI50 [15]: > 100 µM (inactive)
GI50 [16]: > 100 µM (inactive)
GI50 [17]: > 100 µM (inactive)
GI50 [18]: 21.4 µM (inactive)
GI50 [19]: > 100 µM (inactive)

O=C1CCC(=O)N1n1c(Cc2ccc(Cl)cc2)n[nH]c1=O
GI50 [2]: > 100 µM (inactive)
GI50 [3]: > 100 µM (inactive)
GI50 [4]: > 100 µM (inactive)
GI50 [20]: > 100 µM (inactive)
GI50 [5]: > 100 µM
GI50 [6]: > 100 µM (inactive)
GI50 [7]: > 100 µM (inactive)
GI50 [8]: > 100 µM (inactive)
GI50 [9]: > 100 µM (inactive)
GI50 [10]: > 100 µM (inactive)
GI50 [11]: > 100 µM (inactive)
GI50 [12]: > 100 µM (inactive)
GI50 [13]: > 100 µM (inactive)
GI50 [14]: > 100 µM (inactive)
GI50 [15]: > 100 µM (inactive)
GI50 [16]: > 100 µM (inactive)
GI50 [17]: > 100 µM (inactive)
GI50 [19]: > 100 µM (inactive)

O=c1c(C(c2ccc3c(c2)Cc2ccccc2-3)c2c(O)oc3ccccc3c2=O)c(O)oc2ccccc12
GI50 [1]: 18.2 µM (inactive)
GI50 [2]: 29.4 µM (inactive)
GI50 [3]: 23.9 µM (inactive)
GI50 [4]: 34.6 µM (inactive)
GI50 [20]: 31.3 µM (inactive)
GI50 [5]: 22.2 µM
GI50 [6]: 33.6 µM (inactive)
GI50 [7]: 19.5 µM (inactive)
GI50 [8]: 22.5 µM (inactive)
GI50 [9]: > 100 µM (inactive)
GI50 [10]: 26.2 µM (inactive)
GI50 [11]: > 100 µM (inactive)
GI50 [12]: > 100 µM (inactive)
GI50 [13]: 27.4 µM (inactive)
GI50 [14]: 25.9 µM (inactive)
GI50 [15]: 44.9 µM (inactive)
GI50 [16]: 22.9 µM (inactive)
GI50 [17]: > 100 µM (inactive)
GI50 [19]: 35.6 µM (inactive)
